Measurements from article PMC7536148, “Interactions of zearalanone, α-zearalanol, β-zearalanol, zearalenone-14-sulfate, and zearalenone-14-glucoside with serum albumin” (Mycotoxin Research, 2020).
pKd: −log10 of the molar value. “And” between values parts separate entries of the source, which are not always exact repeats. Identical values can stand only once. Counter-ions that a name gives are not always drawn. Like-named read-outs stand apart in the source and are kept apart here. Marks after values point to notes of the source that are not given here.

What was measured:
[1] = molecular target: T1, human serum albumin (HSA) (Homo sapiens, UniProt P02768); assay: Fluorescence quenching of human serum albumin by mycotoxins; assay type: binding; conditions: for logKSV ± SEM (Stern-Volmer quenching constant): HSA 2 μmol/L, PBS pH 7.4, room temperature, λex = 295 nm, λem = 340 nm; for pKd: logK ± SEM (binding constant of mycotoxin-albumin complex), HSA, quenching data, Hyperquad2006 fitting, 1:1 stoichiometry, PBS pH 7.4
T1 construct: purchased Sigma-Aldrich
Procedure: (§1) Fluorescence spectroscopic measurements were carried out employing a Hitachi F-4500 fluorescence spectrophotometer (Hitachi, Tokyo, Japan) to investigate the effect of increasing mycotoxin concentrations on the fluorescence signal of albumins as well as on the emission spectrum of warfarin-HSA complex. Our studies were executed in phosphate-buffered saline (PBS, pH 7.4; 8.00 g/L NaCl, 0.20 g/L KCl, 1.81 g/L Na2HPO4 × 2H2O, 0.24 g/L KH2PO4) at room temperature, in the presence of air.
(§2) For spectral correction of fluorescence emission intensities, absorption spectra of mycotoxins were also recorded applying a Jasco-V730 spectrophotometer (Jasco, Tokyo, Japan). The inner-filter effect of mycotoxins was corrected as described previously (Hu and Liu [2015]; Faisal et al. [2018]):1 Icor=Iobs×e^Aex+Aem/2 where Icor and Iobs indicate the corrected and observed fluorescence emission intensities, respectively. Aex and Aem denote the absorbance of mycotoxins at the excitation and emission wavelengths used, respectively.
(§3) To investigate the stability of mycotoxin-albumin complexes, mycotoxin-induced quenching effects on the intrinsic fluorescence of albumins were tested. The emission signal of albumins (2 μmol/L; λex = 295 nm; […]) were measured in the presence of increasing concentrations of mycotoxins (0.0, 1.0, 2.0, 3.0, 4.0, 5.0, 6.0, 7.0, 8.0, 9.0, and 10.0 μmol/L). Stern-Volmer quenching constants (KSV; unit: L/mol) were determined employing the Stern-Volmer equation (Ma et al. [2018]; Faisal et al. [2018]):2 I0/I=1+KSV×Q where Q is the concentration of the mycotoxin (unit: mol/L). I0 and I are the fluorescence emission signal of albumin in the absence and presence of mycotoxins, respectively. Z14S and Z14G exert fluorescence; their excitation and emission spectra, under different environmental conditions, have been reported previously (Faisal et al. [2019], [2020]).
(§4) Binding constants (K; unit: L/mol) of mycotoxin-albumin complexes were determined by nonlinear fitting employing Hyperquad2006 software, as described in details in our previous studies (Sueck et al. [2018]; Faisal et al. [2018]).

[2] = molecular target: T2, bovine serum albumin (BSA) (Bos taurus, UniProt P02769); assay: Fluorescence quenching of bovine serum albumin by mycotoxins; assay type: binding; conditions: for logKSV ± SEM (Stern-Volmer quenching constant): BSA 2 μmol/L, PBS pH 7.4, room temperature, λex = 295 nm, λem = 340 nm
T2 construct: purchased Sigma-Aldrich
Procedure: as §1, §2, §3, §4

[3] = molecular target: T3, porcine serum albumin (PSA) (Sus scrofa, UniProt P08835); assay: Fluorescence quenching of porcine serum albumin by mycotoxins; assay type: binding; conditions: for logKSV ± SEM (Stern-Volmer quenching constant): PSA 2 μmol/L, PBS pH 7.4, room temperature, λex = 295 nm, λem = 340 nm
T3 construct: purchased Sigma-Aldrich
Procedure: as §1, §2, §3, §4

[4] = molecular target: T4, rat serum albumin (RSA) (Rattus norvegicus, UniProt P02770); assay: Fluorescence quenching of rat serum albumin by mycotoxins; assay type: binding; conditions: for logKSV ± SEM (Stern-Volmer quenching constant): RSA 2 μmol/L, PBS pH 7.4, room temperature, λex = 295 nm, λem = 340 nm
T4 construct: purchased Sigma-Aldrich
Procedure: as §1, §2, §3, §4

[5] = molecular target: T5, HSA (Homo sapiens, UniProt P02768); assay: High-performance affinity chromatography on HSA-coated column; assay type: binding; conditions: Chiralpak HSA column, isopropanol / 0.01 mol/L ammonium acetate pH 7.0 (15:85 v/v%), 0.5 mL/min, room temperature
T5 construct: purchased Daicel Chiralpak HSA, 50 × 3.0 mm, 5 μm
Procedure: HPAC was performed with a HSA-coated column (Faisal et al. [2018]). The HPLC system (Jasco, Tokyo, Japan) used for the analysis included an autosampler (AS-4050), a binary pump (PU-4180), and a diode-array detector (MD-4017). A 5-μL volume of samples (ZAN: 200 μmol/L; ZEN, α-ZAL, β-ZAL, and Z14S: 100 μmol/L; Z14G: 50 μmol/L) was driven through a pre-column filter (Waters, Milford, MA, USA) linked to an immobilized HSA-coated HPAC column (Chiralpak® HSA, 50 × 3.0 mm, 5 μm; Daicel, Tokyo, Japan). The isocratic elution was performed with 0.5-mL/min flow rate at room temperature. The mobile phase contained isopropanol (HPLC grade; VWR, Debrecen, Hungary) and 0.01 mol/L pH 7.0 ammonium acetate buffer (15:85 v/v%). Mycotoxins were detected at 235 nm, and chromatograms were evaluated with ChromNAV software.

[6] = molecular target: T6, warfarin-HSA complex (Homo sapiens, UniProt P02768); assay: Effect of mycotoxins on warfarin-HSA interaction (warfarin fluorescence); assay type: binding; conditions: warfarin 1 μmol/L, HSA 3.5 μmol/L, mycotoxin 0-15 μmol/L, PBS pH 7.4, λex = 317 nm
T6 construct: purchased Sigma-Aldrich
Procedure: as §1, §2
To test the effects of ZEN metabolites on warfarin-HSA interaction, our previously reported method was applied (Faisal et al. [2018]; Fliszár-Nyúl et al. [2019]). In this experiment, the fluorescence emission signal of warfarin (1 μmol/L; λex = 317 nm, λem = 379 nm) was examined in the presence of HSA (3.5 μmol/L) without and with mycotoxins (0, 1, 2, 3, 4, 5, 6, 8, 10, and 15 μmol/L) in PBS (pH 7.4). Under these conditions, approximately 70% of warfarin is albumin-bound.

[7] = tested on: estrogen receptors; conditions: cited from earlier work; for xenoestrogenic effects compared with ZEN: ref EFSA 2017, Fleck et al. 2017, Frizzell et al. 2011, Filannino et al. 2011
[8] = pigs, ref Binder et al. 2017; cited from earlier work
[9] = molecular target: T1, human serum albumin (HSA); design: method as in Faisal et al. (2018); conditions: ref Faisal et al. (2018); cited from earlier work
[10] = molecular target: T2, bovine serum albumin (BSA); design: method as in Faisal et al. (2018); conditions: ref Faisal et al. (2018); cited from earlier work
[11] = molecular target: T3, porcine serum albumin (PSA); design: method as in Faisal et al. (2018); conditions: ref Faisal et al. (2018); cited from earlier work
[12] = molecular target: T4, rat serum albumin (RSA); design: method as in Faisal et al. (2018); conditions: ref Faisal et al. (2018); cited from earlier work
[13] = molecular target: T6, warfarin-HSA complex; design: method as in Poór et al. 2017; Faisal et al. 2018; conditions: allosteric interaction with Sudlow's site I ligand; ref Poór et al. 2017; Faisal et al. 2018; cited from earlier work
[14] = design: method as in EFSA 2014; conditions: ZEN equivalents for ZEN and its modified forms jointly; ref EFSA 2014; cited from earlier work
[15] = design: method as in Rai et al. 2019; conditions: ref Rai et al. 2019; cited from earlier work
[16] = from binding constants of Table 2

T2 sequence (P02769 25-607): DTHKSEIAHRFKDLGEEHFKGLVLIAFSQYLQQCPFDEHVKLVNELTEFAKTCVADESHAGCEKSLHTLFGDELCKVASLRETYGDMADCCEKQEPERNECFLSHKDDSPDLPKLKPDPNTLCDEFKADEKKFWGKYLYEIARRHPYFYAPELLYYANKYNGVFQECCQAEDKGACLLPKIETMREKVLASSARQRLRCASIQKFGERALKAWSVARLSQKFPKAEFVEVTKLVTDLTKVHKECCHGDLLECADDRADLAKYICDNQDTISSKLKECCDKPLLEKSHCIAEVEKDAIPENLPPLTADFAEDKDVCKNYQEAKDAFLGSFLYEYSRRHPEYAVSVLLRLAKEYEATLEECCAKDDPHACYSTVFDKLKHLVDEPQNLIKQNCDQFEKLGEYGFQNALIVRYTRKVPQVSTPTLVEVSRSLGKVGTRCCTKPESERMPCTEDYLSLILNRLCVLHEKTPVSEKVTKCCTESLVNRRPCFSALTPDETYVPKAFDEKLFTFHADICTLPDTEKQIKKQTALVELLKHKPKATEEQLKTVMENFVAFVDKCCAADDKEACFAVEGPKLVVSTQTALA
T4 sequence (P02770 25-608): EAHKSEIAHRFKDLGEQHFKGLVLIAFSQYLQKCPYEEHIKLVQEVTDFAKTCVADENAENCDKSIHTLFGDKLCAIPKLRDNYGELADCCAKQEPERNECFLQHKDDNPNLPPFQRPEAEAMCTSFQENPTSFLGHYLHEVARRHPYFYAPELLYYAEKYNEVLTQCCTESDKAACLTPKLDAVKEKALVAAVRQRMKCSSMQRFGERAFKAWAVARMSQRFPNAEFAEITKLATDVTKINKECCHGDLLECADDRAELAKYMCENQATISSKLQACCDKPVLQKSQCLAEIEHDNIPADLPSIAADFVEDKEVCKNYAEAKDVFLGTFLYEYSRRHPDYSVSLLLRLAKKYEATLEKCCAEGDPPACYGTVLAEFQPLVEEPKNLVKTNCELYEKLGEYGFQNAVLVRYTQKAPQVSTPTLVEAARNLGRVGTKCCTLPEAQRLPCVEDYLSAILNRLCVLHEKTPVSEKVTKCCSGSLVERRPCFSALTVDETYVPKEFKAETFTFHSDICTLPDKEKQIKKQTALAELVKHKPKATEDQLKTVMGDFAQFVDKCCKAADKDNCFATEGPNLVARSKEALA
T3 sequence (P08835 25-607): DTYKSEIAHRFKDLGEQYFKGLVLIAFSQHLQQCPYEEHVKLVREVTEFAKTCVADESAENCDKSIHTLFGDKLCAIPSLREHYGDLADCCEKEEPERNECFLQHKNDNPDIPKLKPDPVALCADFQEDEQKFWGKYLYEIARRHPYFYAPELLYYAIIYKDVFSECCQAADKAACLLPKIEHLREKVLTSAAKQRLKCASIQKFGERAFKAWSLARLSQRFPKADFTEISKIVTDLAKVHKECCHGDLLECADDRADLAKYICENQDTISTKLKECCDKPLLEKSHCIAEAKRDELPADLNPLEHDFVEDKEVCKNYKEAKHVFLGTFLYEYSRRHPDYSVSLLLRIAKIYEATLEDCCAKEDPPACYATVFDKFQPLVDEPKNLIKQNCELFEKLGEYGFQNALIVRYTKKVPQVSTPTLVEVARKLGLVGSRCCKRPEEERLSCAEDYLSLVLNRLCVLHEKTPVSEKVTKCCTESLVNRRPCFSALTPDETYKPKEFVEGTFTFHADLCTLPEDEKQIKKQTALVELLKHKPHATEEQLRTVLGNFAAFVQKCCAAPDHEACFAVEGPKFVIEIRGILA
T1 sequence (P02768 25-609): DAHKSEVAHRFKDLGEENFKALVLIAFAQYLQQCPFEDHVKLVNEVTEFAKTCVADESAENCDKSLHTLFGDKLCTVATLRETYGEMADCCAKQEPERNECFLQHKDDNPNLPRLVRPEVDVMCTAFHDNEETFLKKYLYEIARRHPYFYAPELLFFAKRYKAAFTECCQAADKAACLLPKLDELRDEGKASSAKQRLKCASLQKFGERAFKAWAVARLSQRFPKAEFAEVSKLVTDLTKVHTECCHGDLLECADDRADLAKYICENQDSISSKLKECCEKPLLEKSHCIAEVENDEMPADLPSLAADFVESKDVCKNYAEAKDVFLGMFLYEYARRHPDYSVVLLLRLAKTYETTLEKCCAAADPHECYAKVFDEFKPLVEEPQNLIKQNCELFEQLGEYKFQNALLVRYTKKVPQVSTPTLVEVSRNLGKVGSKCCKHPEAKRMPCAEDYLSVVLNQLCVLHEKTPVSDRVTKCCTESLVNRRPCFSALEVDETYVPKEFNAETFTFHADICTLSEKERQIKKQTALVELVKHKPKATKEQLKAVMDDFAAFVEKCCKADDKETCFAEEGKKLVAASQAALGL
T6 sequence (P02768 25-609, one chain of several): as the sequence (P02768 25-609) above
T5 sequence (P02768 25-609): as above

Row | Compound | logKSV ± SEM (Stern-Volmer quenching constant) [1] | pKd [1] | pKd [2] | logKSV ± SEM (Stern-Volmer quenching constant) [2] | pKd [3] | logKSV ± SEM (Stern-Volmer quenching constant) [3] | pKd [4] | logKSV ± SEM (Stern-Volmer quenching constant) [4] | retention time (tR) from HSA-HPAC affinity column [5] | effect on fluorescence emission signal of warfarin at 379 nm (warfarin-HSA interaction) [6] | effect on binding affinity of warfarin towards HSA [13] | also measured
1 | C[C@H]1CCCC(=O)CCC/C=C/c2cc(OS(=O)(=O)O)cc(O)c2C(=O)O1 [Z14S, Zearalenone-14-sulfate ammonium salt] | 4.64 ± 0.03 L/mol | 4.70 and 4.71 | 5.43 | 5.32 ± 0.02 L/mol | 5.12 | 5.04 ± 0.02 L/mol | 5.93 | 5.70 ± 0.02 L/mol | 23.3 min and 23.293 min | did not affect the fluorescence at 379 nm | – | difference in binding affinity, RSA and HSA complex [4, 16]: 16 fold; lower estrogenicity vs. ZEN ([7]; in vitro, ref Drzymala et al. 2015): 100 fold; intestinal hydrolysis to ZEN after oral administration [8]: complete intestinal hydrolysis to ZEN
2 | C[C@H]1CCCC(=O)CCCCCc2cc(O)cc(O)c2C(=O)O1 [ZAN, zearalanone] | 4.52 ± 0.04 L/mol | 4.58 | – | 4.41 ± 0.04 L/mol | 3.97 | 3.97 ± 0.06 L/mol | 5.12 | 5.00 ± 0.03 L/mol | 8.0 min and 8.017 min | considerably increased the emission signal of warfarin | – | Kd ([2]; BSA, quenching data, Hyperquad2006 fitting, 1:1 stoichiometry, PBS pH 7.4, read-out: logK ± SEM (binding constant of mycotoxin-albumin complex) (converted)): 30.9 µM; difference in binding affinity, RSA vs. PSA complex [4, 16]: 14 fold
3 | C[C@H]1CCCC(=O)CCC/C=C/c2cc(O)cc(O)c2C(=O)O1 [ZEN, Zearalenone] | – | – | – | – | – | – | – | – | 12.3 min and 12.267 min | – | increase | logK ± SEM (binding constant of mycotoxin-albumin complex) [9]: 5.1 L/mol and 5.09 ± 0.01^a L/mol; logKSV ± SEM (Stern-Volmer quenching constant) [9]: 5.09 ± 0.01^a L/mol; logK ± SEM (binding constant of mycotoxin-albumin complex) [10]: 4.78 ± 0.01^a L/mol; logKSV ± SEM (Stern-Volmer quenching constant) [10]: 4.81 ± 0.01^a L/mol; logK ± SEM (binding constant of mycotoxin-albumin complex) [11]: 4.57 ± 0.01^a L/mol; logKSV ± SEM (Stern-Volmer quenching constant) [11]: 4.56 ± 0.02^a L/mol; logK ± SEM (binding constant of mycotoxin-albumin complex) [12]: 5.42 ± 0.00^a L/mol; logKSV ± SEM (Stern-Volmer quenching constant) [12]: 5.50 ± 0.01^a L/mol; human tolerable daily intake (TDI) [14]: 0.25 μg/kg body weight per day; IARC carcinogen classification [15]: group 3 carcinogen
4 | C[C@H]1CCC[C@H](O)CCCCCc2cc(O)cc(O)c2C(=O)O1 [α-ZAL, α-zearalanol] | 4.50 ± 0.02 L/mol | 4.55 | 4.34 | 4.20 ± 0.05 L/mol | 4.38 | 4.30 ± 0.05 L/mol | 5.31 | 5.21 ± 0.00 L/mol | 5.3 min and 5.313 min | considerably increased the emission signal of warfarin | – | difference in binding affinity, RSA vs. BSA complex [4, 16]: 9 fold; xenoestrogenic effects compared with ZEN [7]: considerably higher xenoestrogenic effects than ZEN
5 | C[C@H]1CCC[C@H](O)CCC/C=C/c2cc(O)cc(O)c2C(=O)O1 [α-ZEL, α-zearalenol, reference compound] | – | – | – | – | – | – | – | – | – | – | increase | xenoestrogenic effects compared with ZEN [7]: considerably higher xenoestrogenic effects than ZEN
6 | C[C@H]1CCC[C@@H](O)CCCCCc2cc(O)cc(O)c2C(=O)O1 [β-ZAL, β-zearalanol] | 4.34 ± 0.04 L/mol | 4.37 | 4.12 | 3.88 ± 0.06 L/mol | 4.15 | 4.13 ± 0.09 L/mol | 5.61 | 5.43 ± 0.01 L/mol | 3.1 min and 3.053 min | did not affect the fluorescence at 379 nm | – | difference in binding affinity, RSA vs. BSA complex [4, 16]: 30 fold
7 | C[C@H]1CCC[C@@H](O)CCC/C=C/c2cc(O)cc(O)c2C(=O)O1 [β-ZEL, β-zearalenol] | – | – | – | – | – | – | – | – | – | – | decrease | –
